Entries after “also recorded” stand apart in the source; their conditions may differ. Read-outs that look alike come from different tables or passages of the source.
What was measured:
Format in all cases: cell-based
[1] = biological target: T1, human GPR40 (hGPR40) (Homo sapiens, UniProt O14842); assay: Determination of intracellular Ca2+ concentration (FLIPR), cell line TXGPR40; conditions: for agonistic activity for GPR40 (in words): cells in which GPR40 has been transgenically expressed; for [Ca^2+]/GPR40 10 μM (ratio vs. LA): relative fluorescence intensity vs LA at 10 μM
T1 construct: expressed in transfected cells; doxycycline-inducible expression vector
T1 sequence (O14842 whole entry): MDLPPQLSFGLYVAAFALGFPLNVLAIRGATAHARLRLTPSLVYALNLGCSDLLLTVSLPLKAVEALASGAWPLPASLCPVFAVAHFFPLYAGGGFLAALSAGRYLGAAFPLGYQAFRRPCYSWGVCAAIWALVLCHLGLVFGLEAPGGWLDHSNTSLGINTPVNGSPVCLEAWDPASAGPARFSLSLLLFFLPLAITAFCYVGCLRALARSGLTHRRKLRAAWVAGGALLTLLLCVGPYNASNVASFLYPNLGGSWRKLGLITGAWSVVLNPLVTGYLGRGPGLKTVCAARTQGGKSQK
Procedure: (§1) (1) In this test, The cell lines TXGPR40, TXGPR120 and GPR120/Flp-in were plated onto a collagen-coated black 96-well plate in 2×10^5 cells/well. The 96-well plates containing the cells were centrifuged and treated with Doxycycline (final concentration 10 μg/mL), incubated in a CO2 incubator for 21 hours, then used for assay.
(§2) (2) The ligand used in this test includes NCP04, NCP14, NCG20, NCG21, NCG22, NCG23, NCP02, NCP03, NCP05, NCP06, NCG14, NCG17, NCG19, NCG28, NCG29, NCG30, NCG31, NCG34, NCG35, NCG37, NCG38, NCG44, NCG45, NCG46, and NCG54. Each ligand was dissolved in DMSO and adjusted to the concentration of 10 mM, then diluted with Hanks' Balanced Salt Solution (pH 7.4) containing 20 mM HEPES (referred to as FLIPR buffer hereinafter) to the final concentration of 1 to 100 μM. 1% DMSO was used as the negative control, and LA was used as the positive control.
(§3) The ligands and controls were placed in different 96-well plates from the plates for the cells.
(§4) (3) The 96-well plate containing the cells was removed from the CO2 incubator. A fluorescent dye prepared in a twofold higher concentration (Ca Assay Kit Component A diluted with FLIPR Buffer) was added in 50 μL/well, then allowed to stand in the dark at room temperature for one hour.
(§5) (4) After one hour, the 96-well plate containing the cells and the 96-well plate in which ligands and controls were prepared were set on FLIPR (Fluorometric Imaging Plate Reader) for determination.
(§6) (5) Fluorometry using FLIPR was carried out at a laser output of 1.0 W for five minutes. […] after the start of the determination, the ligand (25 μL) was added dropwise to the cell plate at a rate of 50 μL/sec. The intensity of fluorescence was automatically digitized by the application program installed in the FLIPR from the image taken by the CCD camera (with exposure time of 0.40 sec). The interval of data sampling was one second for the initial one minute after the start of operation, and six seconds for the subsequent four minutes.
(§7) (6) The maximum fluorescence intensity was obtained from the data showing the change in the fluorescence intensity over time observed in each well. The maximum fluorescence intensity was plotted against ligand concentration, and pEC50 was calculated. The ratio of the fluorescence intensity for each ligand to LA at 10 μM was calculated as the relative intensity of each ligand.

[2] = biological target: T2, human GPR120 (hGPR120) (Homo sapiens, UniProt Q5NUL3); assay: Determination of intracellular Ca2+ concentration (FLIPR), cell line GPR120/Flp-in; conditions: for [Ca^2+]/GPR120/Flp-In 10 μM (ratio vs. LA): relative fluorescence intensity vs LA at 10 μM
T2 construct: expressed in transfected cells; doxycycline-inducible expression vector
T2 sequence (Q5NUL3 1-361): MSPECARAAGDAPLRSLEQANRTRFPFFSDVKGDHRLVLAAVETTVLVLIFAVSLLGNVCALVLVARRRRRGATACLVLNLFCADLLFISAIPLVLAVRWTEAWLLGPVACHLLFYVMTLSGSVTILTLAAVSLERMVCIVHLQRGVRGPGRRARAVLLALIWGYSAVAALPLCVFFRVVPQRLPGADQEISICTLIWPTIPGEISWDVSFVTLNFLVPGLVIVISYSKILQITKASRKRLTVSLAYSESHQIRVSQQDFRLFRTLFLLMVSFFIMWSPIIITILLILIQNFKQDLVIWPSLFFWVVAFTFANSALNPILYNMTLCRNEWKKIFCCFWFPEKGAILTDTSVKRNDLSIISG
Procedure: as §1, §2, §3, §4, §5, §6, §7

[3] = biological target: T1, human GPR40 (hGPR40); assay: ERK assay, screening for GPR40 ligands in cell line TXGPR40; conditions: TXGPR40 cells; for ERK activation for GPR40 (in words): FIGS. 1-4; for ERK/GPR40 10 μM: ligand 10 μM; for ERK/GPR40 10 μM / ERK/GPR40 100 μM: class relative to LA; for ERK/GPR40 100 μM: ligand 100 μM
Procedure: (§8) This Test 1 was carried out by using the following materials and methods.
(§9) (1) In this test, the cell lines TXGPR40 and TXGPR120 were plated in 35-mm dishes in 5×10^5 cells/per dish.
(§10) Each ligand was dissolved in DMSO, diluted tenfold with the medium to make the total amount of 100 μl. DMSO was used as the negative control, and PMA (phorbol-12-myristate-13-acetate) was used as the positive control.
(§11) (3) The medium was removed from the dish of the cell to reduce the total amount of liquid to 0.9 ml.
(§12) (4) The ligand solution was added dropwise to the cell solution, and dispersed by gently shaking the dish, and allowed to react at room temperature.
(§13) (5) After 5 minutes of reaction, the medium was discarded, and the remaining medium on the dish was removed on ice using an aspirator.
(§14) (6) 150 μl of Lysis buffer (50 mM HEPES (pH 7.0), 150 mM NaCl, 10% glycerol, 1% NonidetP-40, 2 mM MgCl2, 1 mM EDTA, 100 mM NaF, 10 mM sodium phosphate, 1 mM Na3VO4, 20 mM β-glycerophosphate, and Proteinase inhibitor) were added, then the cells were collected using a cell scraper.
(§15) (1) The crude enzyme solution mixed with SDS Sample Buffer was subjected to ultrasonication with a sonifier, then incubated at 90° C. for five minutes.
(§16) (2) The mixture was vortexed and centrifuged at 15,000 rpm for five minutes at 4° C.
(§17) (3) The supernatant of the centrifuged sample was applied to two 7.5% acrylamide gel slabs placed in an electrophoresis tank filled with 1×SDS-PAGE Running Buffer (25 mM Tris, 0.2 M Glycin, and 1% SDS). Electrophoresis was carried out under a constant current of 40 mA for about 80 to 90 minutes.
(§18) (1) A PVDF membrane cut in the same size as the gel slab was immersed in methanol for about 15 seconds and then shaken in Transfer Buffer C solution (25 mM Tris, 0.02% SDS, 2% methanol and 40 mM 6-aminohexanoic acid) at room temperature to swell for 15 minutes. Filter paper for blotting was cut into a 10-cm square.
(§19) (2) On the blotting apparatus were placed sequentially two pieces of filter paper immersed in A solution (0.3 M Tris, 0.02% SDS and 2% methanol), two pieces of filter paper immersed in B solution (25 mM Tris, 0.02% SDS and 2% methanol), and the membrane thereon. The gel slab after electrophoresis, and finally two pieces of filter paper immersed in C solution was placed thereon, and the apparatus was closed.
(§20) (3) The protein was transferred to the membrane at 15 V for 30 minutes.
(§21) (1) The following procedure was all carried out at room temperature. After the protein transfer, the membrane was placed into a vial containing 1×TTBS (0.2 M Tris, 1.5 M NaCl, 0.2% Tween 20) and washed for 15 minutes.
(§22) (2) TTBS was discarded, and about 10 ml of Block Ace was added and blocked on a shaker for one hour.
(§23) (1) The primary antibodies (p44/42 MAP Kinase Antibody and Phospho-p44/42 MAP Kinase Antibody) were each diluted 1000-fold with TTBS.
(§24) (2) After blocking, the Block Ace solution was removed, the solution of the primary antibody was added and allowed to react on the shaker for two hours.
(§25) (1) The secondary antibody (Anti-rabbit Ig, Horseradish Peroxidase linked F(ab′)2 fragments) was diluted 5000-fold with TTBS.
(§26) (2) The primary antibody solution was removed and the membrane was washed three times on the shaker in TTBS for five to ten minutes each.
(§27) (3) TTBS was removed and the solution of secondary antibody was added and left for 1 hour on the shaker.
(§28) (1) 2 ml each of Detection Reagent 1 and Detection Reagent 2 from ECL kit were mixed together on ice.
(§29) (2) The solution of secondary antibody was removed from the membrane reacted with the secondary antibody and then washed three times on the shaker in TTBS for five minutes each.
(§30) (3) The liquid was thoroughly removed from the membrane, which was then placed in a plastic bag, and 2 ml of the Detection Reagent mixture was added per each membrane.
(§31) (4) The membrane was kept in contact with a film in the cassette for one to five minutes, and the film was developed using an automatic developing machine.

[4] = biological target: T2, human GPR120 (hGPR120); assay: ERK assay, screening for GPR120 ligands in cell line TXGPR120;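 on ERK/GPR120 10 μM: signals normalized between DMSO and PMA controls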; conditions: TXGPR120 cells; for ERK activation for GPR120 (in words): FIGS. 5-8; for ERK/GPR120 10 μM: ligand 10 μM; for ERK/GPR120 10 μM / ERK/GPR120 100 μM: class relative to LA; for ERK/GPR120 100 μM: ligand 100 μM
Procedure: as §8, §9, §10, §11, §12, §13, §14, §15, §16, §17, §18, §19, §20, §21, §22, §23, §24, §25, §26, §27, §28, §29, §30, §31

[5] = biological target: T2, human GPR120 (hGPR120); assay: Determination of intracellular Ca2+ concentration (FLIPR), cell line TXGPR120; conditions: for agonistic activity for hGPR120 (in words): cells in which GPR120 has been transgenically expressed; for [Ca^2+]/GPR120 10 μM (ratio vs. LA): relative fluorescence intensity vs LA at 10 μM, TXGPR120 cells
Procedure: as §1, §2, §3, §4, §5, §6, §7

[6] = TXGPR40 cells, maximum fluorescence intensity vs ligand concentration, read-out: [Ca^2+]/GPR40 pEC50 (converted)
[7] = GPR120/Flp-in cells, maximum fluorescence intensity vs ligand concentration, read-out: [Ca^2+]/GPR120/Flp-In pEC50 (converted)

Row | EC50 [1, 6] | EC50 [2, 7] | ERK/GPR40 10 μM [3] | ERK/GPR40 100 μM [3] | ERK activation for GPR120 (in words) [4] | ERK/GPR120 10 μM [4] | ERK/GPR120 100 μM [4] | agonistic activity for GPR40 (in words) [1] | [Ca^2+]/GPR40 10 μM (ratio vs. LA) ([1]; TXGPR40 cells) | agonistic activity for hGPR120 (in words) [5] | [Ca^2+]/GPR120 10 μM (ratio vs. LA) [5] | [Ca^2+]/GPR120/Flp-In 10 μM (ratio vs. LA) ([2]; GPR120/Flp-in cells) | EC50 [1] | EC50 [5] | EC50 [2] | Compound | ERK activation for GPR40 (in words) [3]
1 | – | 10 µM | – | – | – | + (+ denotes 0 to 100% of LA) | ++ (++ denotes 50 to 100% of LA) | – | 0.01 | exhibit a similar effect | 0.01 | 0.65 | – | – | – | O=C(O)CCCc1ccc(OCCN(c2cccnc2)c2ccccn2)cc1 [NCG45] | –
2 | – | – | – | – | – | – | – | – | – | exhibit a similar effect | – | – | – | – | – | CCCCCCN(CCOc1ccc(CCC(=O)O)cc1)c1ccccn1 [NCP06] | –

Second part, the molecule before the results:

Row | Compound | EC50 [1, 6] | EC50 [2, 7] | ERK/GPR40 10 μM [3] | ERK/GPR40 100 μM [3] | ERK activation for GPR120 (in words) [4] | ERK/GPR120 10 μM [4] | ERK/GPR120 100 μM [4] | agonistic activity for GPR40 (in words) [1] | [Ca^2+]/GPR40 10 μM (ratio vs. LA) ([1]; TXGPR40 cells) | agonistic activity for hGPR120 (in words) [5] | [Ca^2+]/GPR120 10 μM (ratio vs. LA) [5] | [Ca^2+]/GPR120/Flp-In 10 μM (ratio vs. LA) ([2]; GPR120/Flp-in cells) | EC50 [1] | EC50 [5] | EC50 [2] | ERK activation for GPR40 (in words) [3]
3 | CCCCN(CCOc1ccc(CCCCC(=O)O)cc1)c1ccccn1 [NCG22, 5-{4-[2-(2-butylpyridinylamino)ethoxy]phenyl}pentanoic acid] | 20.4 µM | 19.1 µM | – | – | – | – | – | – | – | – | – | – | – | – | – | –
4 | O=C(O)CCc1ccc(OCCCN(c2ccccc2)c2ccccn2)cc1 [NCG28] | 1.12 µM | 6.76 µM | +++ (+++ denotes a higher value than LA) | +++ (+++ denotes a higher value than LA) | activates ERK | ++ (++ denotes 50 to 100% of LA) | +++ (+++ denotes a higher value than LA) | showed a specific reactivity | 1.37 | exhibit a similar effect | 0.02 | 0.54 | – | – | – | activates ERK at lower concentrations; also recorded: strongly activated ERK
5 | O=C(O)CCCc1ccc(OCCN(c2ccccc2)c2ccccc2)cc1 [NCG29] | – | – | ++ (++ denotes 50 to 100% of LA) | +++ (+++ denotes a higher value than LA) | strongly activate ERK | +++ (+++ denotes a higher value than LA) | +++ (+++ denotes a higher value than LA) | showed a specific reactivity | 0.21 | exhibit a similar effect | 0.85 | 0.88 | 20.9 µM | 12 µM | 4.27 µM | strongly activated ERK

From patent US8318781B2, “G-protein-conjugated receptor agonist” (Japan Science and Technology Agency, priority 2007, dated 2012)
